Data set [1] can be described thus: absorbability (bioavailability) of oral formulations in a dog. The settings on record: in vivo, during fasting. The source says:
(§1) On the other hand, the present inventors have heretofore conducted various studies on oral formulations of 4-bromo-6-[3-(4-chlorophenyl)propoxy]-5-(3-pyridylmethylamino)-3(2H)-pyridazinone (hereinafter referred to simply as Compound A) or its salt.

The nature of data set [2]: solubility in water as a function of pH. In kind it is physicochemical.
Description: as §1

Data set [3] is described as follows: elution test (paddle method, Japanese Pharmacopoeia Disintegration Test Solutions 1 and 2). The data set is classed as physicochemical. The procedure: The test conditions are as follows. Test solutions: Japanese Pharmacopoeia Disintegration Test Solution 1 (pH 1.2) 900 mL, Japanese Pharmacopoeia Disintegration Test Solution 2 900 mL (pH 6.8)+0.1% Tween 80 Paddle rotational speed: 50 rpm Liquid temperature: 37° C.

Counter-ions that a name gives are not always drawn.

With `O=c1[nH]nc(OCCCc2ccc(Cl)cc2)c(NCc2cccnc2)c1Br` [Compound A, 4-bromo-6-[3-(4-chlorophenyl)propoxy]-5-(3-pyridylmethylamino)-3(2H)-pyridazinone], the bioavailability in data set [1] was around 10%. Moreover, the “solubility in water, dependence on pH” value in data set [2] (boundary in the vicinity of pH4.0) is “decreases in the vicinity of pH4.0 as a boundary”. Further, the solubility in water result in data set [2] (in the vicinity of the pH in the intestine) was “hardly soluble in water”.
Take `O=c1[nH]nc(OCCCc2ccc(Cl)cc2)c(NCc2cccnc2)c1Br` [hydrochloride of Compound A, 4-bromo-6-[3-(4-chlorophenyl)propoxy]-5-(3-pyridylmethylamino)-3(2H)-pyridazinone]: the “difference in the elution rate between Solution 1 (pH 1.2) and Solution 2 (pH 6.8) containing 0.1% Tween 80” value in data set [3] (900 mL, 37° C., paddle 50 rpm) was “substantial difference”. Moreover, the elution rate in data set [3] (Japanese Pharmacopoeia Disintegration Test Solution 2 (pH 6.8) + 0.1% Tween 80, after 6 hours, 37° C., paddle 50 rpm) is below 20%. Also, the “solubility indicated by the elution test” value in data set [3] (in the vicinity of the pH in the intestine (Solution 2 + 0.1% Tween 80)) is reported as “hardly soluble”.

These data come from US20090117190A1, “SUSTAINED-RELEASE PREPARATION” (Nissan Chemical Industries, Ltd., priority 2005, published 2009).
